The subject of data set [1] is pluripotent macrophages.
Protocol: (§1) Isolated monocytes were centrifuged and resuspended in DMEM/10% FBS at a concentration of 550 cells/ml. M-CSF (Macrophage colony-stimulating factor) was added to resuspended cells at a concentration of 1:2000 with a stock solution at 0.1 mg/ml.
(§2) 1.2 million monocytes were plated per each 9.6 cm^2 well of a 6-well plate, 550,000 monocytes per each 3.1 cm^2 well of a 12-well plate, and 6 million monocytes per each 25 cm^2 flask. To ensure that monocytes became confluent and evenly distributed, and thus maintained a good differentiation rate, flasks and plates remained horizontal throughout the protocol, plating was done slowly by gently releasing monocytes from the pipette. Plated cells were left at room temperature for at least 15 min so that cells became fully attached to the surface of the plates or flasks, and subsequently incubated at 37° C. with 5% CO2 until day 4.
(§3) Once the tubes of steps e) and f) were at 37° C., the growth factor BHA (butylated hydroxyanizole) was added to the culture medium of monocytes at a final concentration of 50 nM, as follows: • g) adding 10 μl of 100 mM BHA (0.0089 grams of BHA+500 μL ethanol) to the 10 ml of DMEM/10% FBS of step e), thereby obtaining a 100 μM BHA/DMEM solution. Then diluting 10 μl of this 100 μM solution with a further 10 ml of DMEM/10% FBS heated at 37° C., thereby obtaining a 100 nM BHA/DMEM solution; • h) discarding the medium of the 6- and 12-well plates containing the monocytes isolated from the same subject as the PBMCs of step b); • i) adding the BHA/DMEM solution and the conditioned medium to each well of the plates in a 1:1 ratio, i.e.: • 1.5 ml of the 100 nM BHA/DMEM of step g) and 1.5 ml of the PBMCs conditioned medium of step f), for each well of a 6-well plate, and • 1 ml of the 100 nM BHA/DMEM of step g) and 1 ml of the PBMCs conditioned medium of step f), for each well of a 12-well plate; • j) incubating the plates at 37° C. with 5% CO2 until day 10. […]
The test system of data set [2] is pluripotent macrophages. Briefly: in vitro differentiation of monocytes-derived pluripotent macrophages into neuronal-like cells. Particulars: for effect on cells of increased concentration or number of doses: concentration increased above the recommended ones, or number of doses increased.
Protocol: as §1, §2, §3

Read-outs that look alike come from different tables or passages of the source.

On to “IGF-1: Recombinant human Insulin Growth Factor-1 (Peprotech)”, for which the “effect on cells of increased concentration or number of doses” value in data set [1] is recorded as “damaged the cells”. For `CC1=C(/C=C/C(C)=C/C=C/C(C)=C/C(=O)O)C(C)(C)CCC1` [RA, Retinoic Acid], the “effect on cells of increased concentration or number of doses” value in data set [2] was “damaged the cells”. With “IGF-2: Insulin growth factor-2, exogenous factor tested as replacement”, the cell viability result in data set [2] (replacing IGF-1 by this factor) is “did not improve cell viability”. Turning to `COc1ccc(O)c(C(C)(C)C)c1` [BHA, Butylated hydroxyanisole], the “effect on cells of increased concentration or number of doses” value in data set [2] is given as “damaged the cells”.
